Source: patent US8664220B2, “Polycyclic compounds as lysophosphatidic acid receptor antagonists” (Amira Pharmaceuticals, Inc., priority 2009, dated 2014)

target: T1, human LPA1 (Homo sapiens, UniProt Q92633); assay: LPA1 calcium flux assay; format: cell-based; conditions: human LPA1 expressing CHO cells, stimulated with 10 nM LPA; read-out: HLPA1 Ca Flux IC50
T1 construct: the full-length cDNA for human LPA1 was obtained by PCR of the reverse transcription reaction; expressed in transfected cells
T1 sequence (Q92633 whole entry): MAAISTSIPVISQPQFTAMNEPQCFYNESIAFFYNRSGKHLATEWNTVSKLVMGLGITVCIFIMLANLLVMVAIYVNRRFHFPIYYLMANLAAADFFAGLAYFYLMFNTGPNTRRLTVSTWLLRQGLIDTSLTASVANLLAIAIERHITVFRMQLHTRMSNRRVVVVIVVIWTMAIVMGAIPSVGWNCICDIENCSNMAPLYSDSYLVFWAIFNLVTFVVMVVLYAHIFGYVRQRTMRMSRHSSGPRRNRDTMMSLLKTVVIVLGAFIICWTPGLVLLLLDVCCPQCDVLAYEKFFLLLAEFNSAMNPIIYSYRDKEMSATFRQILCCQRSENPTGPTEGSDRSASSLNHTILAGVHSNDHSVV
Procedure, shortened: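 CHO cells stably expressing human LPA1, serum-starved overnight and loaded with Calcium 4 dye in HBSS/20 mM Hepes/0.3% fatty-acid-free HSA, 1 h at 37 °C. Compounds pre-incubated 30 min at room temperature, then 10 nM LPA added; intracellular Ca2+ flux measured and IC50 from titration curves.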

Row | IC50 | SMILES
1 | < 300 nM | Cc1noc(-c2ccc(-c3ccc(C4(C(=O)O)CC4)cc3)cc2)c1Nc1nnc(-c2ccccc2)o1 [Compound 1-80, 1-{4′-[3-Methyl-4-(5-phenyl-[1,3,4]oxadiazol-2-ylamino)-isoxazol-5-yl]-biphenyl-4-yl}-cyclopropanecarboxylic acid]
2 | < 300 nM | Cc1noc(-c2ccc(-c3ccc(CCC(=O)O)cc3)cc2)c1Nc1nnc(-c2ccccc2)o1 [Compound 1-81, 3-{4′-[3-Methyl-4-(5-phenyl[1,3,4]oxadiazol-2-ylamino)-isoxazol-5-yl]-biphenyl-4-yl}-propionic acid]
3 | < 300 nM | Cc1noc(-c2ccc(-c3ccc(C4(C(=O)O)CC4)cc3)cc2)c1Nc1cccc(Oc2ccccc2)c1 [Compound 1-82, 1-{4′-[3-Methyl-4-(3-phenoxy-phenylamino)-isoxazol-5-yl]-biphenyl-4-yl}-cyclopropanecarboxylic acid]
4 | < 300 nM | Cc1noc(-c2ccc(-c3ccc(C4(C(=O)O)CC4)cc3)cc2)c1Nc1nnc(Cc2ccccc2)o1 [Compound 1-83, 1-{4′-[4-(5-Benzyl-[1,3,4]oxadiazol-2-ylamino)-3-methyl-isoxazol-5-yl]-biphenyl-4-yl}-cyclopropanecarboxylic acid]
5 | < 300 nM | Cc1noc(-c2ccc(-c3ccc(C4(C(=O)O)CC4)cc3)cc2)c1Nc1cccc(Cc2ccccc2F)n1 [Compound 1-84, 1-(4′-{4-[6-(2-Fluoro-benzyl)-pyridin-2-ylamino]-3-methyl-isoxazol-5-yl}-biphenyl-4-yl)-cyclopropanecarboxylic acid]
6 | < 300 nM | Cc1noc(-c2ccc(-c3ccc(C4(C(=O)O)CC4)cc3)cc2)c1Nc1cccc(Cc2cccc(F)c2)n1 [Compound 1-85, 1-(4′-{4-[6-(3-Fluoro-benzyl)-pyridin-2-ylamino]-3-methyl-isoxazol-5-yl}-biphenyl-4-yl)-cyclopropanecarboxylic acid]
7 | < 300 nM | Cc1noc(-c2ccc(-c3ccc(C4(C(=O)O)CC4)cc3)cc2)c1Nc1cccc(Cc2ccc(F)cc2)n1 [Compound 1-86, 1-(4′-{4-[6-(4-Fluoro-benzyl)-pyridin-2-ylamino]-3-methyl-isoxazol-5-yl}-biphenyl-4-yl)-cyclopropanecarboxylic acid]
8 | 300 to 1000 nM | CCOc1ccc(-c2cccc(Nc3c(C)noc3-c3ccc(-c4ccc(C5(C(=O)O)CC5)cc4)cc3)n2)cn1 [Compound 1-87, 1-{4′-[4-(6′-Ethoxy-[2,3]bipyridinyl-6-ylamino)-3-methyl-isoxazol-5-yl]-biphenyl-4-yl}-cyclopropanecarboxylic acid]
9 | < 300 nM | COc1cccc(-c2cccc(Nc3c(C)noc3-c3ccc(-c4ccc(C5(C(=O)O)CC5)cc4)cc3)n2)c1 [Compound 1-88, 1-(4′-{4-[6-(3-Methoxy-phenyl)-pyridin-2-ylamino]-3-methyl-isoxazol-5-yl}-biphenyl-4-yl)-cyclopropanecarboxylic acid]
10 | < 300 nM | COc1ncccc1-c1cccc(Nc2c(C)noc2-c2ccc(-c3ccc(C4(C(=O)O)CC4)cc3)cc2)c1 [Compound 1-89, 1-(4′-{4-[3-(2-Methoxy-pyridin-3-yl)-phenylamino]-3-methyl-isoxazol-5-yl}-biphenyl-4-yl)-cyclopropanecarboxylic acid]
11 | < 300 nM | Cc1noc(-c2ccc(-c3ccc(C4(C(=O)O)CC4)cc3)cc2)c1Nc1cccc(Cc2ccccc2)c1 [Compound 1-90, 1-{4′-[4-(3-Benzyl-phenylamino)-3-methyl-isoxazol-5-yl]-biphenyl-4-yl}-cyclopropanecarboxylic acid]
12 | < 300 nM | Cc1noc(-c2ccc(-c3ccc(C4(C(=O)O)CC4)cc3)cc2)c1Nc1cccc(-c2ccccc2C#N)n1 [Compound 1-91, 1-(4′-{4-[6-(2-Cyano-phenyl)-pyridin-2-ylamino]-3-methyl-isoxazol-5-yl}-biphenyl-4-yl)-cyclopropanecarboxylic acid]
13 | < 300 nM | COc1ccc(-c2cccc(Nc3c(C)noc3-c3ccc(-c4ccc(C5(C(=O)O)CC5)cc4)cc3)n2)cc1 [Compound 1-92, 1-(4′-{4-[6-(4-Methoxy-phenyl)-pyridin-2-ylamino]-3-methyl-isoxazol-5-yl}-biphenyl-4-yl)-cyclopropanecarboxylic acid]
14 | < 300 nM | Cc1noc(-c2ccc(-c3ccc(C4(C(=O)O)CC4)cc3)cc2)c1Nc1cccc(-c2cccc(F)c2)n1 [Compound 1-93, 1-(4′-{4-[6-(3-Fluoro-phenyl)-pyridin-2-ylamino]-3-methyl-isoxazol-5-yl}-biphenyl-4-yl)-cyclopropanecarboxylic acid]
15 | < 300 nM | COc1ccccc1-c1cccc(Nc2c(C)noc2-c2ccc(-c3ccc(C4(C(=O)O)CC4)cc3)cc2)n1 [Compound 1-94, 1-(4′-{4-[6-(2-Methoxy-phenyl)-pyridin-2-ylamino]-3-methyl-isoxazol-5-yl}-biphenyl-4-yl)-cyclopropanecarboxylic acid]
16 | < 300 nM | Cc1noc(-c2ccc(-c3ccc(C4(C(=O)O)CC4)cc3)cc2)c1Nc1cccc(-c2ccccc2F)n1 [Compound 1-95, 1-(4′-{4-[6-(2-Fluoro-phenyl)-pyridin-2-ylamino]-3-methyl-isoxazol-5-yl}-biphenyl-4-yl)-cyclopropanecarboxylic acid]
17 | < 300 nM | Cc1noc(-c2ccc(-c3ccc(C4(C(=O)O)CC4)cc3)cc2)c1Nc1cccc(-c2ccccc2C(F)(F)F)n1 [Compound 1-96, 1-(4′-{3-methyl-4-[6-(2-trifluoromethyl-phenyl)-pyridin-2-ylamino]-isoxazol-5-yl}-biphenyl-4-yl)-cyclopropanecarboxylic acid]
18 | < 300 nM | COc1ncccc1-c1cccc(Nc2c(C)noc2-c2ccc(-c3ccc(C4(C(=O)O)CC4)cc3)cc2)n1 [Compound 1-97, 1-{4′-[4-(2′-Methoxy-[2,3′]bipyridinyl-6-ylamino)-3-methyl-isoxazol-5-yl]-biphenyl-4-yl}-cyclopropanecarboxylic acid]
19 | < 300 nM | COc1ccc(-c2cccc(Nc3c(C)noc3-c3ccc(-c4ccc(C5(C(=O)O)CC5)cc4)cc3)n2)cn1 [Compound 1-98, 1-{4′-[4-(6′-Methoxy-[2,3′]bipyridinyl-6-ylamino)-3-methyl-isoxazol-5-yl]-biphenyl-4-yl}-cyclopropanecarboxylic acid]
20 | < 300 nM | Cc1noc(-c2ccc(-c3ccc(C4(C(=O)O)CC4)cc3)cc2)c1Nc1cccc(-c2ccncc2)n1 [Compound 1-99, 1-{4′-[4-([2,4′]Bipyridinyl-6-ylamino)-3-methyl-isoxazol-5-yl]-biphenyl-4-yl}-cyclopropanecarboxylic acid]
21 | < 300 nM | Cc1noc(-c2ccc(-c3ccc(C4(C(=O)O)CC4)cc3)cc2)c1NCc1cnc(-c2ccccc2)s1 [Compound 1-100, 1-(4′-{3-Methyl-4-[(2-phenyl-thiazol-5-ylmethyl)-amino]-isoxazol-5-yl}-biphenyl-4-yl)-cyclopropanecarboxylic acid]
22 | < 300 nM | Cc1noc(-c2ccc(-c3ccc(C4(C(=O)O)CC4)cc3)cc2)c1Nc1cccc(-c2ccccc2C(F)(F)F)c1 [Compound 1-101, 1-{4′-[3-Methyl-4-(2′-trifluoromethyl-biphenyl-3-ylamino)-isoxazol-5-yl]-biphenyl-4-yl}-cyclopropanecarboxylic acid]
23 | < 300 nM | COc1ccc(-c2cccc(Nc3c(C)noc3-c3ccc(-c4ccc(C5(C(=O)O)CC5)cc4)cc3)c2)cn1 [Compound 1-102, 1-(4′-{4-[3-(6-Methoxy-pyridin-3-yl)-phenylamino]-3-methyl-isoxazol-5-yl}-biphenyl-4-yl)-cyclopropanecarboxylic acid]
24 | < 300 nM | Cc1noc(-c2ccc(-c3ccc(C4(C(=O)O)CC4)cc3)cc2)c1Nc1cccc(-c2cccnc2)c1 [Compound 1-103, 1-{4′-[3-Methyl-4-(3-pyridin-3-yl-phenylamino)-isoxazol-5-yl]-biphenyl-4-yl}-cyclopropanecarboxylic acid]
25 | < 300 nM | COc1cncc(-c2cccc(Nc3c(C)noc3-c3ccc(-c4ccc(C5(C(=O)O)CC5)cc4)cc3)c2)c1 [Compound 1-104, 1-(4′-{4-[3-(5-Methoxy-pyridin-3-yl)-phenylamino]-3-methyl-isoxazol-5-yl}-biphenyl-4-yl)-cyclopropanecarboxylic acid]
26 | 300 to 1000 nM | Cc1noc(-c2ccc(-c3ccc(C4(C(=O)O)CC4)cc3)cc2)c1Nc1cccc(N(C)c2ccccc2)n1 [Compound 1-105, 1-(4′-{3-Methyl-4-[6-(methyl-phenyl-amino)-pyridin-2-ylamino]-isoxazol-5-yl}-biphenyl-4-yl)-cyclopropanecarboxylic acid]
27 | < 300 nM | Cc1noc(-c2ccc(-c3ccc(C4(C(=O)O)CC4)cc3)cc2)c1Nc1cccc(N(C)c2ccccc2)c1 [Compound 1-106, 1-(4′-{3-Methyl-4-[3-(methyl-phenyl-amino)-phenylamino]-isoxazol-5-yl}-biphenyl-4-yl)-cyclopropanecarboxylic acid]
28 | < 300 nM | Cc1noc(-c2ccc(-c3ccc(C4(C(=O)O)CC4)cc3)cc2)c1Nc1cncc(-c2ccccc2)c1 [Compound 1-107, 1-{4′-[3-Methyl-4-(5-phenyl-pyridin-3-ylamino)-isoxazol-5-yl]-biphenyl-4-yl}-cyclopropanecarboxylic acid]
29 | < 300 nM | Cc1noc(-c2ccc(-c3ccc(C4(C(=O)O)CC4)cc3)cc2)c1Nc1cncc(-c2cccc(F)c2)c1 [Compound 1-108, 1-(4′-{4-[5-(3-Fluoro-phenyl)-pyridin-3-ylamino]-3-methyl-isoxazol-5-yl}-biphenyl-4-yl)-cyclopropanecarboxylic acid]
30 | < 300 nM | Cc1noc(-c2ccc(-c3ccc(C4(C(=O)O)CC4)cc3)cc2)c1Nc1cccc(-c2ccccc2Cl)n1 [Compound 1-109, 1-(4′-{4-[6-(2-Chloro-phenyl)-pyridin-2-ylamino]-3-methyl-isoxazol-5-yl}-biphenyl-4-yl)-cyclopropanecarboxylic acid]
